# Data as given in article PMC8275550, “Developmental Neurotoxicity of Fipronil and Rotenone on a Human Neuronal In Vitro Test System” (Neurotoxicity Research, 2021).
# Entries after “also recorded” stand apart in the source; their conditions may differ. Where two headings read alike, the source gives them in different places.
# What was measured:
# [1] = tested on: NT2 neurons; assay: cells; type: cell-based, human; conditions: for Effect on neurite outgrowth, endpoint specific control compounds: concentration-response curves, supplementary Fig. 1
# Source text: Two photographs/well at × 20 magnification were taken.
# [2] = tested on: NT2 precursor cells; conditions: 100 nM cytochalasin D, 44 h, without affecting viability; ref Stern et al. [2014]; cited from earlier work
# [3] = tested on: differentiating NT2 cells; assay: cells; type: cell-based, human; conditions: for IC50: NT2, 120 h, read-out: IC50 neuronal differentiation (ß-tub III, spec. EP)
# Protocol: (§1) As established in our previous study (Stern et al. [2014]), cells were seeded into 96-well plates (Corning Costar, Kaiserslautern, Germany) at 80,000 cells per well and incubated in DMEM/F12 with 10 µM retinoic acid (RA) for 4 days (one media change). Cells were incubated for further 5 days (one media change) in media containing 10 µM RA and up to seven concentrations of a test compound. On day 9 (5-day exposition), cell viability was measured using a resazurin reduction assay (Trinova Biochem, Giessen, Germany). Subsequently, cells were fixed for 15 min in PFA and immunolabeled for ß-tubulin type III as above (Fig. 1a). For control purposes, photographs were taken at × 20 magnification as above. Neuronal differentiation was determined by measuring red fluorescence (excitation 568 nm, emission 603 nm) in a multiwell-plate reader (Infinite 200, TECAN, Germany). As a confirmation of the viability data, cell number was also quantified by measuring DAPI fluorescence (excitation 350 nm, emission 488 nm).
# [4] = Resazurin reduction viability assay in the neuronal differentiation assay; type: cell-based, human; conditions: human
# Protocol: as §1
# [5] = tested on: NT2 precursor cells; assay: cells; type: cell-based, human; conditions: for IC50: read-out: IC50 migration (spec. EP); for Rescue by NAC, migration / Rescue by Y-27632, migration: yes = at least one concentration of rescuing compound with specific endpoint significantly less affected
# Protocol: (§2) As established before (Stern et al. [2014]), NT2 precursor cells were seeded in 96-mm bacteriological grade Petri dishes (Greiner, Hamburg, Germany) at a density of 4 × 10^6–5 × 10^6 cells per dish. Within 24 h, cells formed free-floating spherical aggregates of 300–800 µm diameter. On the first day, 10 ml of culture medium was added to each Petri dish. On the next days, medium with 10 μM retinoic acid (RA) was added and changed every 2–3 days by transferring the cell suspension to centrifuge tubes and centrifuge at 200 × g for 7 min. After 9 days in culture, aggregates were gently resuspended using a Pasteur pipette, and seeded at 60,000 cells per well into black 96-well plates with flat transparent bottom (Nunc). Plates were lined with poly-D-lysine and laminin (10 µg/ml each), equipped with silicone stoppers from the Oris Cell Migration Assay (AMS Biotechnology, Abingdon, UK). Cells were allowed to adhere overnight. On the next day, stoppers were pulled leaving a monolayer of cells with a circular hole of 2-mm diameter. […] After one wash in PBS, cells were fixed for 15 min in PFA, washed twice in PBS-T and stained with DAPI (0.5 µg/ml) for 5 min, followed by two washes in PBS. A black 96-hole plastic mask leaving a central circular area of 2-mm diameter for each well was clipped to the bottom of the plate. This allows viewing only those cells that had migrated into the free areas left by the silicone stoppers during seeding (Fig. 1b). Migration was quantified by taking two photographs of each well and measuring the distance of the migration front from the black margin of the mask in using ImageJ. Occasional asymmetries caused by slight inaccuracies of silicone stopper placement were compensated by averaging measurements in four quadrants per well. […] Average null-migration values were subtracted from migrated distance before evaluation.
# [6] = Resazurin reduction viability assay in the cell migration assay; type: cell-based; conditions: human
# Protocol: as §2
# [7] = cited from earlier work
# [8] = in vitro; conditions: human
# Protocol: (§3) Dispersed cells were seeded into two identical poly-D-lysine (10 µg/ml) coated 96-well plates (Corning Costar, Kaiserslautern, Germany) at a density of 10,000 cells per well. Cultures were exposed to up to seven different concentrations of a test compound in DMEM/F12 (six technical replicates per concentration) for 24 h. One plate was immediately fixed in 4% paraformaldehyde in PBS (PFA) for 15 min. After 24 h, while a resazurin reduction assay (2 h) was performed on the other plate. […] Fixed cells were washed in PBS containing 0.1% Triton X100 (PBS-T) and immunolabeled for ß-tubulin type III (monoclonal anti ßtubIII, 1:20,000) using a red fluorescent secondary antibody (goat anti mouse-alexaFluor568, Invitrogen, Germany, 1:250) and DAPI (0.1 µg/ml) as nuclear counterstain. Cells were examined on a Zeiss Axiovert 200 inverted microscope equipped with a CoolSnap camera (Photometrics, Tucson, AZ, USA) and MetaMorph software (Molecular Devices, Sunnyvale, CA, USA), or a Zeiss Axiocam50 mono and Zeiss ZENlite 2.6 blue edition software. Two photographs/well at × 20 magnification were taken. Lengths of all neurites in the field of view were measured in ImageJ (http://imagej.nih.gov/ij) using the ‚segmented line ‘ tool (Fig. 1c) and divided by the number of ß-tubulin III-positive cells.
# [9] = tested on: differentiating NT2 cells; assay: Resazurin reduction viability assay in the neuronal differentiation assay; type: cell-based, human; conditions: differentiation assay
# Protocol: as §1
# [10] = tested on: neurospheres; design: method as in Ishido and Suzuki ([2010]); conditions: general cytotoxicity not tested; ref Ishido and Suzuki ([2010]); read-out: IC50 cell migration out of neurospheres; cited from earlier work
# [11] = human
# Protocol: as §3
# [12] = tested on: NT2 cells treated for 2 weeks with retinoic acid (2wkRA); conditions: […]
# Protocol: as §3
# [13] = tested on: differentiating NT2 cells; conditions: 333 µM sodium valproate; ref Stern et al. [2014]; cited from earlier work
# [14] = tested on: differentiating NT2 cells; design: method as in Stern et al. [2014]; conditions: 333 µM sodium valproate; ref Stern et al. [2014]; cited from earlier work
# [15] = yes = at least one concentration of rescuing compound with specific endpoint significantly less affected
# [16] = migration assay, 44 h exposure, > = highest tested concentration, read-out: IC50 general cytotoxicity (resazurin), unspec. EP
# [17] = co-applied with 2.4 µM rotenone
# [18] = yes = at least one concentration of rescuing compound with specific endpoint significantly less affected than by test compound alone
compound,measurement,setting,value
"C=C1[C@@H](C)[C@H]2[C@H](Cc3ccccc3)NC(=O)[C@]23[C@H](OC(C)=O)/C=C/[C@@](C)(O)C(=O)[C@@H](C)C/C=C/[C@H]3[C@@H]1O [Cytochalasin D, [(1R,2R,3E,5R,7S,9E,11R,12S,14S,15R,16S)-16-Benzyl-5,12-dihydroxy-5,7,14-trimethyl-13-methylidene-6,18-dioxo-17-azatricyclo[9.7.0.0^1,15]octadeca-3,9-dien-2-yl] acetate]",activity at 0.1 µM,"[1]; Homo sapiens, Neuron, 100 nM cytochalasin D, read-out: Neurite outgrowth (% of control), endpoint-specific control",< 25%
same,"Effect on neurite outgrowth, endpoint specific control compounds",[1],specifically inhibits neurite outgrowth
same,"Effect on cell motility, null-migration reference",[2],completely inhibits cell motility
"N#Cc1nn(-c2c(Cl)cc(C(F)(F)F)cc2Cl)c(N)c1S(=O)(=O)C(F)(F)F [Fipronil sulfone, 5-Amino-1-[2,6-dichloro-4-(trifluoromethyl)phenyl]-4-(trifluoromethylsulfonyl)pyrazole-3-carbonitrile]",IC50,"[1]; Homo sapiens, 24 h exposure, total neurite length/neuron, normalized to solvent control, read-out: IC50 neurite outgrowth (spec. EP)",34 µM
same,IC50,"[3]; Homo sapiens, 5 days exposure",9.77 µM
same,activity at 7.81 µM,"[3]; Homo sapiens, NT2, 7.81 µM fipronil sulfone, read-out: Neuronal differentiation (% of control)",70%
same,"Rescue by NAC, neuronal differentiation",[3]; [15],no
same,viability,"[4]; 7.81 µM fipronil sulfone, read-out: General viability (% of control)",~100%
same,IC50,"[4]; differentiation assay, 5 days exposure, read-out: IC50 general cytotoxicity (resazurin), unspec. EP",15.5 µM
same,Concentrations with significant differences between viability and migration,[5]; 44 h exposure,≥ 15.63 µM
same,activity at 15.63 µM,"[5]; Homo sapiens, 15.63 µM fipronil sulfone, read-out: Migration (% of control)",< 40%
same,IC50,"[5]; Homo sapiens, 44 h exposure",14.2 µM
same,"Rescue by NAC, migration",[5],yes
same,"Rescue by Y-27632, migration",[5],Yes
same,viability,"[6]; 15.63 µM fipronil sulfone, read-out: Viability (% of control)",85%
same,IC50,[6]; [16],> 62.5 µM
same,Blood concentration in workers with occupational fipronil exposure,[7]; ref Herin et al. [2011],up to 0.1 µM
same,Concentration measured in umbilical cord blood,"[7]; urban population of South Korea, ref Kim et al. [2019]",up to 1.1 nM
same,IC50,[8],43 µM
"CC(C)=CCC/C(C)=C/CC/C(C)=C/CC[C@]1(C)CCc2c(C)c(O)c(C)c(C)c2O1 [α-tocotrienol, (2R)-2,5,7,8-Tetramethyl-2-[(3E,7E)-4,8,12-trimethyltrideca-3,7,11-trienyl]-3,4-dihydrochromen-6-ol]",Effect on rotenone-induced NT2 neurite outgrowth inhibition,[1]; [17],could not change
COc1cc2c(c(OC)c1OC)-c1ccc(OC)c(=O)cc1[C@@H](NC(C)=O)CC2 [Colchicine],"Effect on neurite outgrowth, endpoint specific control compounds",[1],specifically inhibits neurite outgrowth
"C[C@@H](N)[C@H]1CC[C@H](C(=O)Nc2ccncc2)CC1 [Y-27632, 4-[(1R)-1-Aminoethyl]-N-pyridin-4-ylcyclohexane-1-carboxamide]",activity at 50 µM,"[1]; Homo sapiens, Neuron, 50 µM Y-27632, without affecting general viability, read-out: Neurite outgrowth (% of control), endpoint-specific control",> 125%
same,EC50,"[1]; Homo sapiens, Neuron, co-applied with 2.4 µM rotenone, read-out: EC50 compensation of rotenone-inhibited neurite outgrowth",12.1 µM
same,Effect on rotenone-induced NT2 neurite outgrowth inhibition,[1]; [17],could alleviate
same,activity at 50 µM,"[5]; Homo sapiens, 50 µM Y-27632, without affecting general viability, read-out: Precursor cell migration (% of control), endpoint-specific control",> 125%
same,EC50,"[5]; Homo sapiens, co-applied with 122 nM rotenone, read-out: EC50 alleviation of rotenone-inhibited migration",8.3 µM
same,EC50,"[5]; Homo sapiens, co-applied with 15 µM fipronil sulfone, read-out: EC50 alleviation of fipronil sulfone-inhibited migration (Y-27632)",4.22 µM
same,Effect on fipronil-induced inhibition of migration,[5]; co-applied with 50 µM fipronil,could not alleviate; also recorded: could not be alleviated
"C=C(C)[C@H]1Cc2c(ccc3c2O[C@@H]2COc4cc(OC)c(OC)cc4[C@@H]2C3=O)O1 [Rotenone, (1S,6R,13S)-16,17-Dimethoxy-6-prop-1-en-2-yl-2,7,20-trioxapentacyclo[11.8.0.0^3,11.0^4,8.0^14,19]henicosa-3(11),4(8),9,14,16,18-hexaen-12-one]",IC50,"[1]; Homo sapiens, Neuron, 24 h, read-out: IC50 neurite outgrowth (spec. EP)",0.55 µM
same,IC50,"[1]; Homo sapiens, Neuron, 24 h, read-out: IC50 spec. EP (neurite outgrowth)",0.55 µM
same,activity at 0.123 µM,"[1]; Homo sapiens, Neuron, read-out: Neurite outgrowth (% of control)",< 75%
same,"Rescue by NAC, neurite outgrowth",[1]; [18],no
same,"Rescue by Y-27632, neurite outgrowth",[1]; [18],Yes
same,ß-tubulin III-expression (% of control),"[3]; 1.2 nM rotenone, highest non-cytotoxic concentration",below 75%
same,IC50,[3]; Homo sapiens,0.00518 µM
same,"Rescue by NAC, neuronal differentiation",[3]; [15],no
same,"Rescue by Y-27632, neuronal differentiation",[3]; [15],No
same,IC50 at 5 days,"[4]; differentiation assay, 5 days exposure, > = highest tested concentration, read-out: IC50 general cytotoxicity (resazurin), unspec. EP",> 0.1 µM
same,"viability at 5 days, 0.1 µM","[4]; highest tested rotenone concentration (100 nM), read-out: General viability (% of control)",72%
same,Highest non-cytotoxic concentration (viability > 90%),[9],1.2 nM
same,Concentration at which a significant reduction of migration could already be observed,[5]; 44 h exposure,4.12 nM
same,IC50,"[5]; Homo sapiens, 44 h",0.051 µM
same,"Rescue by NAC, migration",[5],no
same,"Rescue by Y-27632, migration",[5],Yes
same,"viability at 44 h, 0.333 µM","[6]; highest tested rotenone concentration (333 nM), read-out: General viability (% of control)",> 70%
same,IC50 at 44 h,[6]; [16],> 0.333 µM
same,IC50,[10],~0.2 µM
same,IC50 at 24 h,[11],> 10 µM
same,"viability at 24 h, 10 µM","[11]; General cell viability (% of control), highest tested concentration, 10 µM rotenone",~80%
same,Highest non-cytotoxic concentration (viability > 90%),[12],123 nM
"CCCC(CCC)C(=O)[O-].[Na+] [Sodium valproate, Sodium; 2-propylpentanoate]","Neuronal differentiation (% of control), endpoint-specific control",[13],less than 50%
same,"General viability (% of control), endpoint-specific control",[14],above 85%
"CC(=O)N[C@@H](CS)C(=O)O [NAC, (2R)-2-Acetamido-3-sulfanylpropanoic acid]",Effect on rotenone-induced NT2 neurite outgrowth inhibition,[1]; [17],could not change
same,Effect on fipronil inhibition of NT2 differentiation,"[3]; 370 µM NAC and higher, with 15 µM fipronil",completely negated
same,EC50,"[3]; Homo sapiens, NT2, co-applied with 15 µM fipronil, read-out: EC50 rescue of fipronil-inhibited neuronal differentiation",94.7 µM
same,Effect on rotenone inhibition of ß-tubulin III-immunofluorescence,"[3]; co-applied with 11 nM rotenone, any concentration",could not alleviate
same,EC50,"[5]; Homo sapiens, all three tested endpoints as worded in abstract, read-out: EC 50 ameliorating the inhibitory effects of fipronil on all three tested endpoints (abstract)",84 to 164 µM
same,EC50,"[5]; Homo sapiens, co-applied with 15 µM fipronil sulfone, only slight alleviation, read-out: EC50 alleviation of fipronil sulfone-inhibited migration (NAC)",84.6 µM
same,EC50,"[5]; Homo sapiens, co-applied with 50 µM fipronil, read-out: EC50 alleviation of fipronil-inhibited migration",161 µM
same,Effect on rotenone inhibition of migration,"[5]; co-applied with 122 nM rotenone, any concentration",could not be alleviated
same,Effect on fipronil sulfone inhibition of migration,[5]; co-applied with 15 µM fipronil sulfone,only slightly alleviated
same,Effect on fipronil-induced inhibition of migration,[5]; co-applied with 50 µM fipronil,could completely counteract
